Key:
Cathepsin B [1] = target: T1, Cathepsin B (Homo sapiens, UniProt P07858); experiment: Inhibition of human cathepsin B using Z-Phe-Arg-AMC fluorogenic peptide as substrate preincubated for 2 mins followed by substrate addition and measured for 5 mins by fluorescence assay
Cathepsin K = target: T2, Cathepsin K (Homo sapiens, UniProt P43235); experiment: Inhibition of recombinant human cathepsin K using Z-Leu-Arg-AMC as substrate measured after 20 mins
T2 sequence (P43235 whole entry): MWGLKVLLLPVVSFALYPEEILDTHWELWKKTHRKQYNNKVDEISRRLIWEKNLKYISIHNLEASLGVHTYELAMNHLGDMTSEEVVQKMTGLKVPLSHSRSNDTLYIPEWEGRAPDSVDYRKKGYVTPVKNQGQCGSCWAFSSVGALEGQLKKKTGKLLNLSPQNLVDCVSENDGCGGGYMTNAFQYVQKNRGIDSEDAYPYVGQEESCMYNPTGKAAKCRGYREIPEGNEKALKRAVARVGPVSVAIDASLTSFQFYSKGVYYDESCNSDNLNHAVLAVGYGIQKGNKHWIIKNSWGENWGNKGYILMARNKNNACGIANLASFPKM

Procathepsin L [2] = target: T3, Procathepsin L (Homo sapiens, UniProt P07711); experiment: Inhibition of human cathepsin L
Target sequence in this assay (P07711 whole entry): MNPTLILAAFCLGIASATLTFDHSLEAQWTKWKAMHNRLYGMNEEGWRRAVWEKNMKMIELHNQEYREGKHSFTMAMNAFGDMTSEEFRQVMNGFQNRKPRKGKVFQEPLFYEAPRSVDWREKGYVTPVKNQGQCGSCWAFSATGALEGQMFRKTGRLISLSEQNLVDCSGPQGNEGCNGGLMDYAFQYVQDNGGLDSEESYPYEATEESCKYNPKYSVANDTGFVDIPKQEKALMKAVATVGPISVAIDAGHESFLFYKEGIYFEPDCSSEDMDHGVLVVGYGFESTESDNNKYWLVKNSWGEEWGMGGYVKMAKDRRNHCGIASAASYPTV

Cathepsin S [3] = target: T4, Cathepsin S (Homo sapiens, UniProt P25774); experiment: Inhibition of human cathepsin S
Target sequence in this assay (P25774 whole entry): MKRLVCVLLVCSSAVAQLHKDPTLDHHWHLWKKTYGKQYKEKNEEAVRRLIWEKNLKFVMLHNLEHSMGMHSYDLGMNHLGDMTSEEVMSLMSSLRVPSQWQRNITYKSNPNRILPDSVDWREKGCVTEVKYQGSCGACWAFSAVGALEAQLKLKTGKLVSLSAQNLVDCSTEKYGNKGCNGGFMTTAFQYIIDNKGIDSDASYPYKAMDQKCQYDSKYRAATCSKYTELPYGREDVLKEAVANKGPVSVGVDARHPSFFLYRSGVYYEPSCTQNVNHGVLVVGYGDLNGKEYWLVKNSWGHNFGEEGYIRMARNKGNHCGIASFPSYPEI

Procathepsin L [4] = target: T3, Procathepsin L; experiment: Inhibition of human cathepsin L at 10 uM relative to control
Target sequence in this assay (P07711 114-333 limits assumed): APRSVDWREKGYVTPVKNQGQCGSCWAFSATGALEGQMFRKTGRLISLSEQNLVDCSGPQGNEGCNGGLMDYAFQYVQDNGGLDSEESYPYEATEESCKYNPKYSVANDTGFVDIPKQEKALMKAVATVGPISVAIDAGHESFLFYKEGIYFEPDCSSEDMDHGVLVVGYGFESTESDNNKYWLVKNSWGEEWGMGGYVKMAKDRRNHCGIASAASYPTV

Cathepsin B [5] = target: T1, Cathepsin B; experiment: Inhibition of human cathepsin B at pH 6 using Z-Phe-Arg-AMC fluorogenic peptide as substrate preincubated for 2 mins followed by substrate addition and measured for 5 mins by fluorescence assay
Cathepsin B [6] = target: T1, Cathepsin B; experiment: Inhibition of human cathepsin B at pH 4.5 using Z-Phe-Arg-AMC fluorogenic peptide as substrate preincubated for 2 mins followed by substrate addition and measured for 5 mins by fluorescence assay
[7] = target: T5, Cathepsin K (Homo sapiens) (UniProt P43235); experiment: Inhibition of recombinant human cathepsin K at 10 uM using Z-Leu-Arg-AMC as substrate measured after 20 mins relative to control
T5 sequence (whole entry): T2 sequence (P43235 whole entry)

Cathepsin S [8] = target: T4, Cathepsin S; experiment: Inhibition of human cathepsin S at 10 uM relative to control
Target sequence in this assay (P25774 115-331 limits assumed): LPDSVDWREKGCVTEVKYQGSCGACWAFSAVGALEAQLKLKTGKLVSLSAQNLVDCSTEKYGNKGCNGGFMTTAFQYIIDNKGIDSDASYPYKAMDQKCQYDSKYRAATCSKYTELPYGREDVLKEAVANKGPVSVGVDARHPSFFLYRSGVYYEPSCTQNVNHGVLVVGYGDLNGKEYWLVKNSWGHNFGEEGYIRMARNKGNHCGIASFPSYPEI

Homo sapiens [9] = species on record: Homo sapiens; experiment: Selectivity index, ratio of pKi for human cathepsin B using Z-Phe-Arg-AMC fluorogenic peptide as substrate preincubated for 2 mins followed by substrate addition and measured for 5 mins by fluorescence assay to pKi for human cathepsin L; settings: time 7.0 min
Cathepsin B [10] = target: T1, Cathepsin B; experiment: Inhibition of human cathepsin B at 10 uM using Z-Phe-Arg-AMC fluorogenic peptide as substrate preincubated for 2 mins followed by substrate addition and measured for 5 mins by fluorescence assay relative to control; settings: time 7.0 min
Homo sapiens [11] = species on record: Homo sapiens; experiment: Selectivity index, ratio of pKi for human cathepsin S to pKi for human cathepsin B using Z-Phe-Arg-AMC fluorogenic peptide as substrate preincubated for 2 mins followed by substrate addition and measured for 5 mins by fluorescence assay; settings: time 7.0 min
[12] = target: Cathepsin (S and K) (Homo sapiens) (UniProt P25774+P43235); experiment: Selectivity index, ratio of pKi for human cathepsin S to pKi for recombinant human cathepsin K using Z-Leu-Arg-AMC as substrate measured after 20 mins; format: protein assay
Sequence of Cathepsin (S and K) (Homo sapiens) (P25774 whole entry, looked up, one chain of several): as the sequence (P25774 whole entry) above

Homo sapiens [13] = species on record: Homo sapiens; experiment: Selectivity index, ratio of pKi for human cathepsin S to pKi for human cathepsin L

Ki (Cathepsin B [1]) [nM] | Ki (Cathepsin K) [nM] | Ki (Procathepsin L [2]) [nM] | Ki (Cathepsin S [3]) [nM] | inhibition (Procathepsin L [4]) [%] | IC50 (Cathepsin B [5]) [nM] | IC50 (Cathepsin B [6]) [nM] | inhibition [7] [%] | inhibition (Cathepsin S [8]) [%] | Ratio pKi (Homo sapiens [9]) | inhibition (Cathepsin B [10]) [%] | Ratio pKi (Homo sapiens [11]) | Ratio pKi [12] | Ratio pKi (Homo sapiens [13]) | SMILES
31.6 | 1580 | > 10000 | 79.4 | 61 | 57.8 | 42.3 |  |  |  |  |  |  |  | C[C@@H](OCc1ccccc1)[C@@H](C#N)NC(=O)[C@H](Cc1cccc(Cl)c1)NC(=O)c1ccc(-c2ccccc2)cc1
63.1 | 3980 | 0.631 | 15.8 |  |  |  |  |  |  |  |  |  |  | C[C@@H](OCc1ccccc1)[C@@H](C#N)NC(=O)[C@H](Cc1cccc(Cl)c1)NC(=O)c1cccc(Br)c1
126 | > 10000 | 50.1 | 50.1 |  |  |  |  |  |  |  |  |  |  | C[C@@H](OCc1ccccc1)[C@@H](C#N)NC(=O)[C@H](Cc1cccc(Cl)c1)NC(=O)c1cccc(-c2ccccc2)c1
12.6 | 5010 | 20 | 31.6 |  |  |  |  |  |  |  |  |  |  | C[C@@H](OCc1ccccc1)[C@@H](C#N)NC(=O)[C@H](Cc1cccc(Br)c1)NC(=O)c1ccc(-c2cncnc2)cc1
> 10000 | > 10000 | > 10000 | 501 | 59 |  |  | > 90 |  |  | > 90 | > 50 | > 50 | > 50 | C[C@@H](OCc1ccccc1)[C@@H](C#N)NC(=O)[C@H](Cc1cccc(Br)c1)NC(=O)Cc1ccc(-c2ccccc2)cc1
31.6 | > 10000 | 20 | 20 |  |  |  |  |  |  |  |  |  |  | C[C@@H](OCc1ccccc1)[C@@H](C#N)NC(=O)[C@H](Cc1cccc(Br)c1)NC(=O)c1cccc(-c2cccnc2)c1
12.6 | > 10000 | 20 | 39.8 |  |  |  | 84 |  |  |  |  |  |  | C[C@@H](OCc1ccccc1)[C@@H](C#N)NC(=O)[C@H](Cc1cccc(Br)c1)NC(=O)c1ccc(-c2cccnc2)cc1
50.1 | > 10000 | > 10000 | 501 | 55 | 92.6 | 39.4 | > 90 |  |  |  |  |  |  | C[C@@H](OCc1ccccc1)[C@@H](C#N)NC(=O)[C@H](Cc1cccc(Br)c1)NC(=O)c1ccc(-c2ccccc2)cc1
5.01 | > 10000 | 1 | 12.6 |  | 9.01 | 33.1 |  |  |  |  |  |  |  | C[C@@H](OCc1ccccc1)[C@@H](C#N)NC(=O)[C@H](Cc1cccc(Cl)c1)NC(=O)c1cccc(-c2cccnc2)c1
63.1 | > 10000 | 20 | 15.8 |  |  |  | 82 |  |  |  |  |  |  | C[C@@H](OCc1ccccc1)[C@@H](C#N)NC(=O)[C@H](Cc1cccc(Cl)c1)NC(=O)c1cccc(-c2cncnc2)c1

Second part, the molecule before the results:

SMILES | Ki (Cathepsin B [1]) [nM] | Ki (Cathepsin K) [nM] | Ki (Procathepsin L [2]) [nM] | Ki (Cathepsin S [3]) [nM] | inhibition (Procathepsin L [4]) [%] | IC50 (Cathepsin B [5]) [nM] | IC50 (Cathepsin B [6]) [nM] | inhibition [7] [%] | inhibition (Cathepsin S [8]) [%] | Ratio pKi (Homo sapiens [9]) | inhibition (Cathepsin B [10]) [%] | Ratio pKi (Homo sapiens [11]) | Ratio pKi [12] | Ratio pKi (Homo sapiens [13])
C[C@@H](OCc1ccccc1)[C@@H](C#N)NC(=O)[C@H](Cc1cccc(Cl)c1)NS(=O)(=O)c1cccc(Br)c1 | 39.8 | 631 | 0.251 | 79.4 |  |  |  |  |  |  |  |  |  | 
C[C@@H](OCc1ccccc1)[C@@H](C#N)NC(=O)[C@H](Cc1cccc(Cl)c1)NC(=O)c1ccc(-c2cncnc2)cc1 | 12.6 | 6310 | 15.8 | 63.1 |  |  |  |  |  |  |  |  |  | 
C[C@@H](OCc1ccccc1)[C@@H](C#N)NC(=O)[C@H](Cc1ccc(Br)cc1)NC(=O)c1ccc(-c2ccccc2)cc1 | 158 | > 10000 | > 10000 | > 10000 | > 90 |  |  | 51 | 86 |  |  |  |  | 
C[C@@H](OCc1ccccc1)[C@@H](C#N)NC(=O)[C@H](Cc1c[nH]c2ccccc12)NC(=O)c1ccc(-c2ccccc2)cc1 | 50.1 | > 10000 | 794 | 158 |  |  |  | 70 |  | 12 |  |  |  | 
C[C@@H](OCc1ccccc1)[C@@H](C#N)NC(=O)[C@H](Cc1cccc(Cl)c1)NS(=O)(=O)c1cccc(-c2ccccc2)c1 | 25.1 | > 10000 | 200 | 631 |  |  |  |  |  |  |  |  |  | 
C[C@@H](OCc1ccccc1)[C@@H](C#N)NC(=O)[C@H](Cc1cccc(Cl)c1)NC(=O)c1ccc(Br)cc1 | 12.6 | 5010 | 7.94 | 126 |  |  |  |  |  |  |  |  |  | 
C[C@@H](OCc1ccccc1)[C@@H](C#N)NC(=O)[C@H](Cc1cccc(Cl)c1)NS(=O)(=O)c1ccc(-c2ccccc2)cc1 | 200 | 10000 | 158 | 501 |  |  |  |  |  |  |  |  |  | 
C[C@@H](OCc1ccccc1)[C@@H](C#N)NC(=O)[C@H](Cc1cccc(Br)c1)NC(=O)c1cc(C(C)(C)C)nn1C | 158 | 2510 | 0.501 | 158 |  |  |  |  |  |  |  |  |  | 

Source: ChEMBL document CHEMBL4673336, “Design, synthesis and stepwise optimization of nitrile-based inhibitors of cathepsins B and L” (Bioorg Med Chem, 2021)
